Entries after “also recorded” stand apart in the source; their conditions may differ.
Legend:
[1] = system: Bleomycin-induced unilateral pulmonary fibrosis model in SD rats; test: Bleomycin-induced unilateral pulmonary fibrosis model, HE staining injury and inflammation score of terminal bronchioles and small pulmonary arteries; assay type: in vivo; conditions: for Injury Score of Terminal Bronchioles and Accompanying Small Pulmonary Arteries, At Margin Lesion / Injury Score of Terminal Bronchioles and Accompanying Small Pulmonary Arteries, Within Lesion: p.o., 28 days from Day 8, Mean ± SEM, p < 0.001 vs. Model group; for Injury Score of Terminal Bronchioles and Accompanying Small Pulmonary Arteries, At Margin Lesion: model group 5.44 ± 0.12; for Injury Score of Terminal Bronchioles and Accompanying Small Pulmonary Arteries, Within Lesion: model group 9.44 ± 0.22
Excerpt: (§1) 55 SD rats were purchased from Zhejiang Charles River Laboratory Animal Technology Co., Ltd. and housed in the SPF-grade barrier system of KCl Biotechnology (Suzhou) Co., Ltd. The animal use certification number was SYXK (Su) 2017-0041, the temperature, humidity and light control system follows international standards.
(§2) Anesthesia: 1-2.5% isoflurane was used for respiratory anesthesia to maintain deep anesthesia of the animals.
(§3) After the rats were under surgical anesthesia, the experimental model was constructed according to the guidelines for establishing the unilateral pulmonary fibrosis model in KCl. The skin was shaved, locally disinfected, and then a layered incision was made to expose and preserve the trachea. Bleomycin (dose: 3 mg/kg) was administered via intratracheal instillation to induce left lung fibrosis. After confirming no bleeding, the incision was closed layer-by-layer using 2-0 silk surgical sutures. After the surgery, the animals were placed on a 37° C. electric heating pad until fully recovered. Normal feeding and drinking were confirmed before returning the animals to standard housing. Starting from the day of modeling, meloxicam (1 mg/kg) was administered subcutaneously once daily for three consecutive days for postoperative analgesia.
(§4) Prior to modeling, animals were randomly divided into five groups based on body weight, as follows: Sham model group (normal group) (n=10), model group (n=10), Nintedanib 100 mg/kg, qd group (n=10), Compound B-1-1 20 mg/kg, bid group (n=10), Compound B-1-1 40 mg/kg, bid group (n=10). The administration began on the 8th day after modeling. • Nintedanib: administered orally, once daily for 28 consecutive days; • Compound B-1-1: administered orally, twice daily for 28 consecutive days.
(§5) After euthanasia, animals were perfused systemically with pre-cooled PBS at 4° C. The lungs were collected, and the left lung lobes were perfused with formalin. Histopathological examinations were performed using HE staining and Masson Trichrome staining. HE staining was used to evaluate the extent of bronchial and small pulmonary artery injury and inflammation, while Masson Trichrome staining assessed the degree of pulmonary fibrosis.
(§6) The entire left lung was dehydrated and embedded in paraffin. Paraffin sections of the entire left lung were prepared at a thickness of 3 μm. HE-stained sections were used for pathological analysis and scoring of injury and inflammatory changes in terminal bronchioles and accompanying small pulmonary arteries within and surrounding the lesion (Tables 4-2 and 4-3). Masson Trichrome staining was performed on the left lung paraffin sections, and the stained sections were scanned using the Nano Zoomer Digital Pathology scanner (S210) to obtain whole-slide images. Ten areas of 1 mm^2 each were randomly selected within the lesion area, and semi-quantitative scoring was conducted under a double-blind condition according to the Ashcroft scoring system (Table 4-4).
(§7) Statistical analysis was performed using Prism 6.0 software. Data are expressed as mean±SEM (standard error). One-way ANOVA was used for the analysis, and Tukey's method was selected for the comparison of differences between groups; when comparing between two groups, a T-test was used for two-tailed detection; when p<0.05, there was a significant difference between the two groups. In cases where outliers were suspected due to large within-group variability, the Identify Outliers function in GraphPad Prism 6.0 was used to detect and exclude outlier values. For data analysis purposes, all relevant data from any animal excluded from the efficacy evaluation were also omitted from statistical analysis.

[2] = system: Bleomycin-induced unilateral pulmonary fibrosis model in SD rats; test: Bleomycin-induced unilateral pulmonary fibrosis model, Masson Trichrome staining, Ashcroft fibrosis score of left lung; assay type: in vivo; conditions: for Fibrosis Score (Ashcroft), left lung: p.o., 28 days from Day 8, model group 3.79 ± 0.08, p < 0.001 vs. Model group
Excerpt: as §1, §2, §3, §4, §5, §6, §7

GLi1 = test: Western blot: degradation of TGF-β-induced GLi1 protein in A549 cells; assay type: cell-based, Human; conditions: 24-hour treatment, FIG. 43
Protocol: (§8) Human lung carcinoma cells (A549 cell line) were purchased from Shanghai Cell Bank of Chinese Academy of Sciences.
(§9) The cells were cultured in RPMI (Roswell Park Memorial Institute)-1640 medium supplemented with 10% FBS (Fetal Bovine Serum) and 1% penicillin-streptomycin. The cell culture conditions were 5% CO2 and […] Upon reaching approximately 80% confluence, the cells were subcultured at a 1:3 ratio.
(§10) A549 cells in the exponential growth phase were digested and plated into 6-well plates at 1×10^6 cells per well. After one day of growth, TGF-β (transforming growth factor-β) and different concentrations of compound B-1-1 were added to culture the cells. Protein was extracted 24 hours after drug treatment.
(§11) After removing the culture medium from the 6-well plates, the cells were washed once with PBS (phosphate-buffered saline) and then trypsinized. The cells were collected in 1.5 mL microcentrifuge tubes by centrifugation. […]
(§12) The protein concentration was determined using a BCA Protein Assay Kit. […] After thoroughly mixing, the plate was incubated at 60° C. for 10 min, and the absorbance was measured at 562 nm. Record the readings and plot a standard curve based on the standard concentration gradient. The protein concentration of the samples was calculated by substituting the sample absorbance values into the standard curve. […]

GLi2 = test: Western blot: degradation of TGF-β-induced GLi2 protein in A549 cells; assay type: cell-based, Human; conditions: 24-hour treatment, FIG. 43
Protocol: as §8, §9, §10, §11, §12

α-SMA = test: Western blot: degradation of TGF-β-induced α-SMA protein in A549 cells; assay type: cell-based, Human; conditions: 24-hour treatment, FIG. 43
Protocol: as §8, §9, §10, §11, §12

[3] = Body weight and clinical observations during the rat pulmonary fibrosis study; assay type: in vivo, SD rats; conditions: Group 5, 40 mg/kg, after administration, FIGS. 44 and 45
Excerpt: as §1
as §3, with “analgesia. […]” for “analgesia.”

[4] = 100 mg/kg, once daily from Day 8, p<0.001
[5] = both doses, 20 mg/kg and 40 mg/kg, twice daily from Day 8, p<0.001

| SMILES | inflammatory cell infiltration and injury in terminal bronchioles and small pulmonary arteries within and surrounding fibrotic lesions, compared to model group (in words) [1, 4] | Injury Score of Terminal Bronchioles and Accompanying Small Pulmonary Arteries, At Margin Lesion ([1]; 100 mg/kg, q.d.) | Injury Score of Terminal Bronchioles and Accompanying Small Pulmonary Arteries, Within Lesion ([1]; 100 mg/kg, q.d.) | pulmonary fibrosis compared to the model group (in words) [2, 4] | Fibrosis Score (Ashcroft), left lung ([2]; 100 mg/kg, q.d.) | degradation of TGF-β-induced GLi1 protein (Western blot) (GLi1) | degradation of TGF-β-induced GLi2 protein (Western blot) (GLi2) | degradation of TGF-β-induced α-SMA protein (Western blot) (α-SMA) | Injury Score of Terminal Bronchioles and Accompanying Small Pulmonary Arteries, At Margin Lesion ([1]; 20 mg/kg, b.i.d.) | Injury Score of Terminal Bronchioles and Accompanying Small Pulmonary Arteries, Within Lesion ([1]; 20 mg/kg, b.i.d.) | Injury Score of Terminal Bronchioles and Accompanying Small Pulmonary Arteries, At Margin Lesion ([1]; 40 mg/kg, b.i.d.) | Injury Score of Terminal Bronchioles and Accompanying Small Pulmonary Arteries, Within Lesion ([1]; 40 mg/kg, b.i.d.) | inflammatory infiltration and pathological injury in terminal bronchioles and small pulmonary arteries within and at the margins of fibrotic lesions, compared to model group (in words) [1, 5] | Fibrosis Score (Ashcroft), left lung ([2]; 20 mg/kg, b.i.d.) | effect in inhibiting the progression of pulmonary fibrosis lesions compared with positive drug nintedanib ([2]; 40 mg/kg, BID, versus nintedanib 100 mg/kg, QD) | Fibrosis Score (Ashcroft), left lung ([2]; 40 mg/kg, b.i.d.) | pulmonary fibrosis scores / progression compared to the model group (in words) [2, 5] | body weight gain compared with the model group [3] |
| --- | --- | --- | --- | --- | --- | --- | --- | --- | --- | --- | --- | --- | --- | --- | --- | --- | --- | --- |
| COC(=O)c1ccc2c(c1)NC(=O)/C2=C(\Nc1ccc(N(C)C(=O)CN2CCN(C)CC2)cc1)c1ccccc1 [Nintedanib, nintedanib, reference compound] | significantly reduced; also recorded: amelioration | 2.72 ± 0.17 | 6.24 ± 0.21 | significantly ameliorated; also recorded: significantly improved | 2.57 ± 0.09 |  |  |  |  |  |  |  |  |  |  |  |  |  |
| Cc1cnc(-c2cc(N3CCc4nc(N5CCC(O)CC5)ncc4[C@H]3C)ncc2Cl)c(C)c1 [Compound B-1-1] |  |  |  |  |  | effectively degraded | effectively degraded | effectively degraded | 3.50 ± 0.43 | 6.96 ± 0.46 | 3.14 ± 0.35 | 6.20 ± 0.47 | significantly decreased; also recorded: significantly improved | 2.93 ± 0.20 | same excellent effect | 2.62 ± 0.18 | significantly reduced; also recorded: significantly inhibit | slower rate of weight gain |
